Laboratory results taken from patent US20240208965A1, “HETEROARYL ALKYLENE SUBSTITUTED 2-OXOQUINAZOLINE DERIVATIVES AS METHIONINE ADENOSYLTRANSFERASE 2A INHIBITORS” (IDEAYA BIOSCIENCES, INC., priority 2020, published 2024).

Molecular target: T1, Human MAT2A (Homo sapiens, UniProt P31153)
T1 construct: Human MAT2A: Cepter, amino acids 1-395 Clone ID 334, lot 00023-148; purchased Cepter clone ID 334, lot 00023-148
Test: Phosphate Sensor Fluorescence Assay (Biologic Example A)
Assay type: biochemical
Details: MAT2A inhibition, Biological Example A procedure (Compounds 1.001-1.028); 500 uM L-methionine, 500 uM ATP
Protocol: The ability of the compound of present disclosure to inhibit MAT2A enzyme was determined using a Phosphate Sensor Fluorescence Assay described below.
Biologic Example A. Phosphate Sensor Fluorescence Assay
MAT2A enzyme is incubated with a test compound in DMSO or DMSO and its substrates (L-methionine and ATP) in a microtiter plate. The enzymatic reaction is stopped by the addition of Working Phosphate Sensor Mixture. The plate is analyzed for fluorescence at 450 nm. The high control (DMSO with enzyme and its substrates) gives high fluorescence which represents no inhibition of enzymatic activity while the low control (DMSO with MAT2A substrates and no enzyme) gives low fluorescence which represents full inhibition of enzymatic activity.
• Human MAT2A: Cepter, amino acids 1-395 • Tris, pH 7.5: Invitrogen cat #15567-027 • KCl: Ambion cat #AM9640G • MgCl2: Ambion cat #AM9530G • Brij-35: Sigma cat B4184-10ML • DTT: Goldbio cat #DTT100 • BGG: Sigma cat #G5009-25G • PNP: Novus Biologicals cat #NBP1-50872 • 7-MEG: Cayman Chemical cat #15988 • L-Methionine: Alfa Aesar cat #J61904 • ATP: Alfa Aesar cat #J60336 • Phosphate Sensor: Thermo Fisher cat #PV4407 • EDTA: Life Tech cat #15575-038 • Assay plate: 384-well black polypropylene plate: Thomas Scientific cat #1149Q35
• Assay Buffer: 50 mM Tris, pH 7.5/50 mM KCl/10 mM MgCl2/0.01% Brij-35/1 mM DTT/0.1% BGG/40 nM PNP/6 uM 7-MEG • MAT2A: 10 nM for Cepter clone ID 329, lot 00023-123 before the addition of Working Phosphate Sensor Mixture • 5 nM for Cepter clone ID 334, lot 00023-148 before the addition of Working Phosphate Sensor Mixture • L-methionine: 500 uM before the addition of Working Phosphate Sensor Mixture • ATP: 500 uM before the addition of Working Phosphate Sensor Mixture
For the assay, a mixture of 1 mM L-methionine/1 mM ATP (2× final pre-stopped concentration) in assay buffer; MAT2A (2× final pre-stopped concentration) in Assay Buffer and Working Phosphate Sensor Mixture (1.5 uM Phosphate Sensor/30 mM EDTA in Assay Buffer, which is 3× final concentrations) were prepared. Test compounds or DMSO were added to the appropriate well suing D300e digital dispenser. 5 μl/well of Assay Buffer was added to the wells corresponding to the negative control and 5 μl/well of MAT2A was added to all the wells except for those corresponding to the negative control. After incubating the plate at room temperature for 15 minutes, 5 μl/well of the 1 mM L-methionine/1 mM ATP mixture was added to all wells. The plate was centrifuged at 1000 rpm for 1 minute and then incubated at room temperature for 1 hour. 5 μl of the Working Phosphate Sensor Mixture was added to all wells and the plate was centrifuged at 1000 rpm for 1 minute. The plate was read for fluorescence at 450 nm after exciting at 430 nm.
Percent inhibition was calculated in Chemical and Biological Information System (CBIS), (ChemInnovation Software Inc.). Curves were fitted by CBIS as % inhibition vs. log [compound concentration] using a 4-parameter inhibition model.
Fit=(A+((B−A)/(1+((C/x)^D))))
Compounds 1.001-1.028 were tested using the procedure described in Bioogical Example A, described above. Compounds 1.029-1.070 were tested using the procedure described in Biological Example B, described above.

T1 sequence (P31153 whole entry, the tested form may be a part): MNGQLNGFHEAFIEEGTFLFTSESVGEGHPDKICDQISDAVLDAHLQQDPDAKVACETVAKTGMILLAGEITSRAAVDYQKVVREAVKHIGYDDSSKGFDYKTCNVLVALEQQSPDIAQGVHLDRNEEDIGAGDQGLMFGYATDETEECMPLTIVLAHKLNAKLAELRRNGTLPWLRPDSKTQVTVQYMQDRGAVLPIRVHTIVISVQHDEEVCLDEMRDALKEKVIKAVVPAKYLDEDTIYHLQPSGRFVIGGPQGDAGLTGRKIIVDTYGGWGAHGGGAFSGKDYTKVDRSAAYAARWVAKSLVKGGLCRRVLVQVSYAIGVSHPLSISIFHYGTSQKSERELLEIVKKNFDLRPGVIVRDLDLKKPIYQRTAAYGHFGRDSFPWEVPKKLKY

| IC50 [nM] | Compound |
| --- | --- |
| 1000 to 10000 | CNc1nc(=O)n(Cc2c[nH]c(C(F)(F)F)n2)c2cc(C(F)(F)F)ccc12 [1.010, 4-(methylamino)-7-(trifluoromethyl)-1-((2-(trifluoromethyl)-1H-imidazol-4-yl)methyl)quinazolin-2(1H)-one] |
| 10 to 200 | CC(c1c[nH]cn1)n1c(=O)nc(N2CC[C@H](CO)C2)c2ccc(C(F)(F)F)cc21 (stereo partly drawn) [1.011, 1-(1-(1H-imidazol-4-yl)ethyl)-4-((S)-3-(hydroxymethyl)pyrrolidin-1-yl)-7-(trifluoromethyl)quinazolin-2(1H)-one] |
| 10 to 200 | CC(c1c[nH]cn1)n1c(=O)nc(N(C)C)c2ccc(C(F)(F)F)cc21 (stereo not shown) [1.015, 1-(1-(1H-imidazol-4-yl)ethyl)-4-(dimethylamino)-7-(trifluoromethyl)quinazolin-2(1H)-one] |
| 10 to 200 | CC(c1c[nH]cn1)n1c(=O)nc(N)c2ccc(C(F)(F)F)cc21 (stereo not shown) [1.018, 1-(1-(1H-imidazol-4-yl)ethyl)-4-amino-7-(trifluoromethyl)quinazolin-2(1H)-one] |
